In patent US20220202801A1, “USE OF COMPOUND IN PREPARATION OF DRUG FOR TREATING ATHEROSCLEROSIS” (GenEros Biopharma Ltd., priority 2019, published 2022):

Experiments:
[1] = system: atherosclerosis model induced by high-fat diet in ApoE knockout mice; test: Ratio of atherosclerotic plaque area to total inner wall area of the aorta (En-Face, oil red; Example 2); type: in vivo; conditions: for Mean of Plaque Ratio (plaque area to total inner wall area of aorta): high-fat diet; for symptoms of atherosclerosis under therapeutic intervention (mainly plaque area ratio): different doses, Example 2
From the text: (§1) Methods: A total of 130 SPF grade C57BL/6 ApoE −/− model male mice aged 8 weeks were purchased from Charles River Laboratories (Beijing, China) (animal license number: SCXK (Beijing) 2016-0001, animal qualification certificate No.: 11400700331337). After one week of acclimatization in a SPF-grade animal facility, the animals with less weights were discarded and the rest was randomly divided into 11 groups, with 8 animals in each group. Except for the healthy control group, the rest were fed with 10% high-fat food (the first day of the high-fat diet was recorded as D1). Starting from the 8th week of the high-fat diet, each group of animals was orally given solvents or corresponding drugs, and the volume of administration was 10 ml/kg, once a day for 8 weeks. Animals were observed and administered by gavage once a day and the body weight were measured once a week for 56 days. […] The store solution of the test samples was dissolved in dimethyl sulfoxide solution and prepared with 30% PEG300.
Immediately after blood was taken from the heart, it was perfused through the left ventricle with 20 ml of normal saline. After bloodletting, the heart and aorta (from the aortic arch to the iliac artery) were isolated. The isolated artery was cut longitudinally from the aortic arch to the iliac artery, fixed in 4% paraformaldehyde for 30 minutes, synchronized with 60% isopropanol for 10 minutes, stained in 60% oil red for 30 minutes, and washed by 60% isopropanol 3 times, 5 minutes each time. Finally, the colored aorta was washed with deionized water and photographed. The proportion of the red plaque area was measured by Image Pro Plus 6.0 (Media Cybernetics, MD, US). The heart samples were fixed in 4% paraformaldehyde solution overnight and then placed in sucrose solution for dehydration. Then, it was embedded with OCT (Sakura, Japan) under a stereo microscope and made into 7 μm frozen sections. After HE staining, the slices were used for routine pathological examination. The outflow tract images were collected under an optical microscope at 4* magnification, and 4*, 10*, 20* and 40* magnification eyepieces were used for high-quality morphological observation. The detection standard referred to the histological classification standard of human atherosclerosis disease.
Evaluate the effect of different therapeutic drugs by the ratio of the area of atherosclerotic plaque to the total area of the inner wall of the aortic vessel (En-Face)
We adopted the widely accepted standard for the severity of arteriosclerosis in animal models, and analyzed the area of all plaques on the inner wall of the aorta. […] FIGS. 46A and 46B are histograms of the ratios of plaque area on the inner wall of the aorta in each treatment group. The values in FIGS. 46A and 46B are the ratios of plaques to the total area of the inner wall in each group, and the error is standard error±SEM. The statistical significance analysis is as follows: ***P<0.001 compared with the normal control group; #P<0.05 compared with the vehicle group; ##P<0.01, ###P<0.001, compared with the vehicle group through one-way ANOVA Dunnett's test; & represents P<0.05, compared with the vehicle group by t test.

ApoE knockout mice [2] = test: Blood lipid metabolism TG, TCHO, HDL-c, LDL-c (Example 2); type: in vivo
From the text: as §1
At the end of the experiment, the animals were euthanized by inhalation of carbon dioxide. Blood was taken from the heart, and centrifuged at 3000 r/min at a low temperature centrifuge for 10 min to separate the serum. The levels of total cholesterol TC, triglyceride TG, high-density lipoprotein HDL-C, and low-density lipoprotein LDL-C were measured, and the remaining serum was stored in a refrigerator at −80° C.
Before the start of the experiment, animal blood samples were analyzed for blood lipid metabolism, including conventional triglyceride (TG), total cholesterol (TCHO), high-density lipoprotein (HDL-c) and low-density lipoprotein (LDL-c). After high-fat or ordinary food feeding for 8 weeks, the blood lipid levels were measured again. After the drug treatment was started, blood lipid measurements were performed every four weeks until the end of the experiment.

[3] = Body weight of ApoE knockout mice on high-fat food (Example 1); type: in vivo; conditions: 20 mg/kg gavage QD
From the text: (§2) Methods: SPF grade C57BL/6 ApoE −/−model mice were provided by Guangdong Medical Experimental Animal Center, laboratory animal production license No. SOCK (Guangdong) 2013-0002. Laboratory animal quality certificate number: 44007200048196). Mice were half male and half female, aged 8 to 12 weeks, and 72 animals in total. After four weeks of housing in a SPF-level animal facility, animals with less body weights were disposed. A total of 64 animals were randomly divided into 8 groups, 8 in each group, fed with 10% high-fat food, and received with different treatments. Animals were observed and administered with the medicines by gavage once daily. The body weights were measured once a week and continued for 58 days. […] The test sample was dissolved in dimethyl sulfoxide solution and prepared with 30% PEG300.
Statistical analysis: Data were expressed as the mean plus or minus the standard deviation (x± s), and analyzed by SPSS21.0 statistical software. The weight data of each group were compared by repeated measures analysis of variance; the blood lipid levels of the statin treatment group were compared with the model control group by independent sample T test; the blood lipid levels of the test samples A and B were compared with the model control group by one-way analysis of variance, and LSD method was used for the comparison among groups. The level of test is α=0.05.

ApoE knockout mice [4] = test: Four blood lipids in serum of ApoE knockout mice (Example 1); type: in vivo; conditions: serum
From the text: as §2
At the end of the experiment, animals were anesthetized with pentobarbital sodium. Blood was collected from the orbital venous plexus, and centrifuged at 3000 r/min at a low temperature for 10 min to separate the serum. The levels of total cholesterol TC, triglyceride TG, high-density lipoprotein HDL-C, and low-density lipoprotein LDL-C were measured, and the remaining serum was stored in a refrigerator at −80° C.
Statistical analysis: Data were expressed as the mean plus or minus the standard deviation (x± s), and analyzed by SPSS21.0 statistical software. […] The level of test is α=0.05.

[5] = system: atherosclerotic lesions in ApoE knockout mice; test: Aortic HE and oil red O staining, atherosclerotic lesion scores (Example 1); type: in vivo
From the text: as §2
(§3) After blood collection, the animals were sacrificed, and the aortic arch together with the heart and thoracic aorta were fixed with neutral formaldehyde and subject to pathological examination. The abdominal aorta was collected and quick-frozen in liquid nitrogen, and stored at −80° C.
a) HE staining: aortic arch was sliced and HE stained. The plaques were observed under optical microscope.
b) Oil red O staining: aortic arch was sliced and oil red O stained. The plaques were observed under optical microscope.

VCAM-1 = test: Immunohistochemistry of aortic wall, VCAM-1; type: in vivo, mice; conditions: IHC-P×400, single animal micrograph, 20 mg/kg
From the text: as §2, §3
(§4) c) Immunohistochemistry: The thoracic aorta was sliced and detected by immunohistochemistry for the expression of CD68, intercellular adhesion molecule-1 (ICAM-1), and vascular cell adhesion Molecule-1 (VCAM-1).

ICAM-1 = test: Immunohistochemistry of aortic wall, ICAM-1; type: in vivo, mice; conditions: IHC-P×400, single animal micrograph, 20 mg/kg
From the text: as §2, §3, §4

CD68 = test: Immunohistochemistry of aortic wall, CD68; type: in vivo, mice; conditions: IHC-P×400, single animal micrograph, 20 mg/kg
From the text: as §2, §3, §4

[6] = half male and female, 20 mg/kg body weight
[7] = ♀, 20 mg/kg gavage QD, 58 days, 20 mg/kg
[8] = ♀, 20 mg/kg gavage QD, 58 days, listed as statin, 20 mg/kg
[9] = ♂, 20 mg/kg gavage QD, 58 days, 20 mg/kg
[10] = ♂, 20 mg/kg gavage QD, 58 days, listed as statin, 20 mg/kg
[11] = of 8 animals, 20 mg/kg body weight

Structure (SMILES): Cc1ccc(CC(=O)N2CCC(n3c(=O)[nH]c4ccccc43)CC2)cc1 [Sample X7, 1-(1-(2-(p-tolyl)acetyl)piperidin-4-yl)-1H-benzo[d]imidazole-2(3H)-one]
- Mean of Plaque Ratio (plaque area to total inner wall area of aorta) ([1]; 5 mpk PO QD 8 weeks): 9.00%
- symptoms of atherosclerosis under therapeutic intervention (mainly plaque area ratio) [1]: significantly alleviate the symptoms of atherosclerosis
- effect on high-density lipoprotein (HDL-c) level compared with the vehicle group (ApoE knockout mice [2]): no obvious effect
- effect on low-density lipoprotein (LDL-c) level compared with the vehicle group (ApoE knockout mice [2]): significantly reduce
- effect on total cholesterol (TCHO) level compared with the vehicle group (ApoE knockout mice [2]): significantly reduce
- effect on triglyceride (TG) level compared with the vehicle group (ApoE knockout mice [2]): significantly reduce

Structure (SMILES): O=C(Cc1ccc(C(F)(F)F)cc1)N1CCC(n2c(=O)[nH]c3ccccc32)CC1 [Sample X8, 1-(1-(2-(4-(trifluoromethyl)phenyl)acetyl)piperidin-4-yl)-1H-benzo[d]imidazole-2(3H)-one]
- Mean of Plaque Ratio (plaque area to total inner wall area of aorta) ([1]; 5 mpk PO QD 8 weeks): 9.02%
- Mean of Plaque Ratio (plaque area to total inner wall area of aorta) ([1]; 10 mpk PO QD 8 weeks): 6.93%
- symptoms of atherosclerosis under therapeutic intervention (mainly plaque area ratio) [1]: significantly alleviate the symptoms of atherosclerosis
- effect on high-density lipoprotein (HDL-c) level compared with the vehicle group (ApoE knockout mice [2]): no obvious effect
- effect on low-density lipoprotein (LDL-c) level compared with the vehicle group (ApoE knockout mice [2]): significantly reduce
- effect on total cholesterol (TCHO) level compared with the vehicle group (ApoE knockout mice [2]): significantly reduce
- effect on triglyceride (TG) level compared with the vehicle group (ApoE knockout mice [2]): significantly reduce

Structure (SMILES): CC(C)c1c(C(=O)Nc2ccccc2)c(-c2ccccc2)c(-c2ccc(F)cc2)n1CC[C@@H](O)C[C@@H](O)CC(=O)[O-].CC(C)c1c(C(=O)Nc2ccccc2)c(-c2ccccc2)c(-c2ccc(F)cc2)n1CC[C@@H](O)C[C@@H](O)CC(=O)[O-].[Ca+2] [Statin, Atorvastatin calcium, reference compound]
- body weight ([3]; d1, half male and female): 25.1 ± 4.2 g
- body weight ([3]; d1, ♀): 21.2 ± 0.9 g
- body weight ([3]; d1, ♂): 28.9 ± 1.2 g
- body weight ([3]; d8, half male and female): 25.4 ± 3.8 g
- body weight ([3]; d8, ♀): 22.0 ± 0.6 g
- body weight ([3]; d8, ♂): 28.9 ± 0.9 g
- body weight ([3]; d15, half male and female): 25.3 ± 4.1 g
- body weight ([3]; d15, ♀): 21.5 ± 0.7 g
- body weight ([3]; d15, ♂): 29.0 ± 1.1 g
- body weight ([3]; d22, half male and female): 25.2 ± 4.2 g
- body weight ([3]; d22, ♀): 21.4 ± 0.6 g
- body weight ([3]; d22, ♂): 29.0 ± 1.4 g
- body weight ([3]; d29, half male and female): 25.2 ± 4.2 g
- body weight ([3]; d29, ♀): 21.4 ± 0.6 g
- body weight ([3]; d29, ♂): 29.1 ± 1.2 g
- body weight ([3]; d36, half male and female): 25.7 ± 3.8 g
- body weight ([3]; d36, ♀): 22.2 ± 0.9 g
- body weight ([3]; d36, ♂): 29.2 ± 1.0 g
- body weight ([3]; d43, half male and female): 26.0 ± 3.9 g
- body weight ([3]; d43, ♀): 22.4 ± 0.5 g
- body weight ([3]; d43, ♂): 29.6 ± 0.8 g
- body weight ([3]; d50, half male and female): 26.5 ± 3.7 g
- body weight ([3]; d50, ♀): 23.1 ± 0.9 g
- body weight ([3]; d50, ♂): 29.8 ± 0.6 g
- body weight ([3]; d57, half male and female): 26.4 ± 4.1 g
- body weight ([3]; d57, ♀): 22.7 ± 0.8 g
- body weight ([3]; d57, ♂): 30.0 ± 1.6 g
- body weight ([3]; d58, half male and female): 26.2 ± 3.8 g
- body weight ([3]; d58, ♀): 22.8 ± 0.5 g
- body weight ([3]; d58, ♂): 29.7 ± 1.4 g
- LDL-C (ApoE knockout mice [4]; [6]): 5.60 ± 1.19 mmol/L
- TC (ApoE knockout mice [4]; [6]): 18.15 ± 2.38 mmol/L
- TG (ApoE knockout mice [4]; half male and female, 20 mg/kg body weight, 20 mg/kg): 0.71 ± 0.19 mmol/L
- TG (ApoE knockout mice [4]; half male and female, 20 mg/kg body weight, listed as statin, 20 mg/kg): lower
- LDL-C (ApoE knockout mice [4]; ♀, 20 mg/kg gavage QD, 58 days): 5.03 ± 0.57 mmol/L
- HDL-C (ApoE knockout mice [4]; [7]): 1.44 ± 0.09 mmol/L
- TC (ApoE knockout mice [4]; [7]): 16.85 ± 1.76 mmol/L
- TG (ApoE knockout mice [4]; [7]): 0.65 ± 0.06 mmol/L
- HDL-C (ApoE knockout mice [4]; [8]): reduced to varying degrees, but there was no statistical difference
- TC (ApoE knockout mice [4]; [8]): reduced to varying degrees, but there was no statistical difference
- TG (ApoE knockout mice [4]; [8]): reduced to varying degrees, but there was no statistical difference
- LDL-C (ApoE knockout mice [4]; ♂, 20 mg/kg gavage QD, 58 days): 6.17 ± 1.46 mmol/L
- HDL-C (ApoE knockout mice [4]; [9]): 1.92 ± 0.62 mmol/L
- TC (ApoE knockout mice [4]; [9]): 19.45 ± 2.37 mmol/L
- TG (ApoE knockout mice [4]; [9]): 0.78 ± 0.27 mmol/L
- HDL-C (ApoE knockout mice [4]; [10]): lower
- TC (ApoE knockout mice [4]; [10]): lower
- TG (ApoE knockout mice [4]; [10]): lower
- Mild n (number of animal cases with mild lesions) [5, 11]: 0
- Moderate n (number of animal cases with moderate lesions) [5, 11]: 3
- No lesion n (number of animal cases) [5, 11]: 3
- Severe n (number of animal cases with severe lesions) [5, 11]: 2
- animals that had atherosclerosis (histological observation) ([5]; of 8 aortas examined, 20 mg/kg): 5 cases
- Scores (atherosclerotic lesion score, average of the group) ([5]; score 0-3 per Table 8, 20 mg/kg body weight): 1.50 ± 1.31
- aorta (VCAM-1) signal expression in blood vessels (VCAM-1): low to medium
- aorta (ICAM-1) signal expression in blood vessels (ICAM-1): low to medium
- aorta (CD68) signal expression in blood vessels (CD68): low to medium
- effect on total cholesterol (TCHO) level compared with the vehicle group (ApoE knockout mice [2]): reduce
- effect on triglyceride (TG) level compared with the vehicle group (ApoE knockout mice [2]): increase
